US20110182860A1 (priority 2009, published 2011)
Marks after values point to notes of the source that are not given here.

Tested on: sheath blight caused by Rhizoctonia solani
Experiment: Rice sheath blight field experiment (Lujiang county of Anhui province)
Assay type: in vivo
From the text: Rice the most important crop in China, and the sheath blight caused by Rhizoctonia solani is one of the most serious diseases in rice.

## OCC1=C[C@@H](N[C@H]2C[C@H](CO)[C@@H](O[C@H]3O[C@@H](CO)[C@H](O)[C@@H](O)[C@@H]3O)[C@H](O)[C@H]2O)[C@H](O)[C@@H](O)[C@@H]1O [Jinggangmycin (20%), Jinggangmycin]
  Control efficacy: 69.81%
  Disease severity, Means ± S.D: 26.51 ± 0.91^b %
Replicate I
  Disease severity, I: 27.43%
Replicate II
  Disease severity, II: 26.52%
Replicate III
  Disease severity, III: 25.60%
